# Strand notation (5' to 3'): a small letter for the sugar, then the base; units joined by * are phosphorothioate-linked, units joined directly phosphodiester-linked; [ ] holds rarer units or linkages, { } end groups; capitals alone tell only the bases. [ms] = mesyl phosphoramidate linkage; e = 2'-O-(2-methoxyethyl) (MOE); k = constrained ethyl (cEt); [5mC] = 5-methylcytosine; d = 2'-deoxy (DNA)
# Legend:
# Format in all cases: in vivo
# human APOE RNA [1] = assay: Activity in APOE C57BL/6NTac-Apoeem7250 knock-in mice, single ICV bolus, 4 weeks (Example 10); conditions: single ICV bolus 300 μg, 4 weeks post treatment, normalized to mouse Ppia
# Procedure, shortened: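 Knock-in mice (2–4 per group) received one 300 μg ICV bolus of oligonucleotide or PBS. After four weeks, human APOE RNA in cortex and spinal cord measured by RT-qPCR (primer probe set RTS3073), normalized to mouse Ppia, expressed as % of PBS controls.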
# human APOE RNA [2] = assay: Activity in APOE C57BL/6NTac-Apoeem7250 knock-in mice, single ICV bolus, 8 weeks (Example 11); conditions: single ICV bolus 300 μg, 8 weeks post treatment, normalized to mouse Ppia
# Procedure, shortened: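 Human APOE knock-in C57BL/6NTac mice given one ICV bolus of 300 μg oligonucleotide; PBS-dosed group as control. At 8 weeks, cortex and spinal cord RNA measured by qRT-PCR (human probe RTS3073), normalized to mouse Ppia, expressed as % of PBS control.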
# human APOE RNA [3] = assay: Activity in APOE C57BL/6NTac-Apoeem7250 knock-in mice, single ICV bolus, 16 weeks (Example 12); conditions: single ICV bolus 300 μg, 16 weeks post treatment, normalized to mouse Ppia
# Procedure, shortened: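 Knock-in mice (3-4 per group) received one ICV bolus of 300 μg oligonucleotide, PBS as control. After 16 weeks, human APOE RNA in cortex and spinal cord measured by RT-qPCR, normalized to mouse Ppia, and reported as % of PBS control.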
# human APOE RNA [4] = assay: Activity in APOE C57BL/6NTac-Apoeem7250 knock-in mice, single ICV bolus, 20 weeks (Example 13); conditions: single ICV bolus 300 μg, 20 weeks post treatment, normalized to mouse Ppia
# Procedure, shortened: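 Knock-in mice (n=4) given a single ICV bolus of 300 μg oligonucleotide, PBS as control. After 20 weeks, human APOE RNA in cortex and spinal cord measured by RT-qPCR, normalized to mouse Ppia, expressed as % of PBS-treated animals.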
Substance,APOE RNA (% control) Cortex (human APOE RNA [1]) [% control],APOE RNA (% control) Spinal Cord (human APOE RNA [1]) [% control],APOE RNA (% control) Cortex (human APOE RNA [2]) [% control],APOE RNA (% control) Spinal Cord (human APOE RNA [2]) [% control],APOE RNA (% control) Cortex (human APOE RNA [3]) [% control],APOE RNA (% control) Spinal Cord (human APOE RNA [3]) [% control],APOE RNA (% control) Cortex (human APOE RNA [4]) [% control],APOE RNA (% control) Spinal Cord (human APOE RNA [4]) [% control]
1778119 (eA*e[5mC]eTeTeG*eG*dT*dG[ms]dA[ms]dA*dT*d[5mC]*dT*dT*dT*dA[ms]kTeT*eA*eA; antisense) [Compound 1778119],45,56,52,27,62,38,84,51
1785616 (k[5mC]*dT[ms]dT[ms]kG*dG[ms]kT*dG[ms]dA[ms]dA[ms]dT*d[5mC]*dT*dT*dT*dA*dT[ms]kT*kA*dA[ms]kA; antisense) [Compound 1785616],47,66,47,27,47,34,77,57
1778113 (eA*e[5mC]eTeTkG*kG*dT*dG[ms]dA[ms]dA*dT*d[5mC]*dT*dT*dT*dA[ms]eT*eT*eA*eA; antisense) [Compound 1778113],48,88,53,28,46,27,61,24
1785619 (k[5mC]*dT[ms]dT[ms]kG*dG[ms]kT*dG*dA[ms]dA[ms]dT*d[5mC]*dT*dT*dT*dA[ms]dT*kT*kA*dA[ms]kA) [Compound 1785619],41,41,40,27,40,41,58,59
1778117 (eA*e[5mC]eTeTeG*eG*dT*dG[ms]dA[ms]dA*dT*d[5mC]*dT*dT*dT*dA[ms]kT*eT*eA*eA; antisense) [Compound 1778117],46,114,49,28,65,36,72,36
1778112 (eA*e[5mC]eTeTeGkG*dT*dG[ms]dA[ms]dA*dT*d[5mC]*dT*dT*dT*dA[ms]eTeT*eA*eA; antisense) [Compound 1778112],46,49,49,23,63,25,67,25

# Reference: US20250353873A1, “COMPOUNDS AND METHODS FOR MODULATING APOE EXPRESSION” (Ionis Pharmaceuticals, Inc., priority 2024, published 2025)
